How the values were obtained:
Format in all cases: biochemical
c-SRC = target: T1, c-SRC (Homo sapiens, UniProt P12931); assay: Kinase selectivity profiling (focused panel), radioactive filter plate assay: c-SRC; details: PolyGT substrate, 0.25 μM ATP, 60 min
T1 construct: purchased Carna Biosciences 08-173
Method: (§1) The purpose of this assay is to determine the activity and selectivity of a compound of the invention on a selected range of human kinases which may result in undesirable side-effects when inhibited (Dy & Adjei 2013; Force & Kolaja 2011).
(§2) The IC50 value for off-target kinases is determined in radioactive filter plate assays. The principle of the assays consists in the measurement of incorporated ^33P into a peptide substrate upon phosphorylation by the kinase enzyme using [γ-^33P]ATP and ATP. Unincorporated ^33P is removed by loading the samples on a filter plate (using a harvester, PerkinElmer) and 6 subsequent washing steps. Incorporated ^33P in the peptide substrate is measured by a scintillation counter (Topcount, PerkinElmer) after addition of MicroScint™-20 (PerkinElmer, 6013621) to the filter plates.
(§3) 5 μL of a water dilution series of test compound (starting from 20 μM or 6.6 μM highest concentration), from a 100% DMSO stock solution, 1/5 dilution, is added to the wells (final DMSO concentration of 1% in reaction assay). Enzyme and peptide substrate are used at optimized concentrations (cf. Table VI). The enzyme and substrate are diluted in assay buffer to a total volume of 11 μL. The reaction is started by addition of 9 μL of ATP+[γ-^33P]ATP, diluted in the same buffer as enzyme and substrate. The mixture is incubated at 30° C. The reaction is terminated by adding 25 μL of 150 mM phosphoric acid. Samples are transferred to filter plates and incorporated radioactivity is measured using a scintillation counter.
(§4) The incubation time, assay buffer composition, and concentrations of ATP, enzyme and substrate are reported in Table VI for example kinase off-target assays.
(§5) 10 μM staurosporine (1% DMSO) is used as positive control (100% inhibition); vehicle (water+1% DMSO) as negative control (0% inhibition).

CDK9 = target: T2, CDK9 (Homo sapiens, UniProt P50750); assay: Kinase selectivity profiling (focused panel), radioactive filter plate assay: CDK9; details: PDKtide, 0.25 μM ATP, 60 min
T2 construct: purchased Millipore 14-685
Method: as §1, §2, §3, §4, §5

GSK3b = target: T3, GSK3b (Homo sapiens, UniProt P49841); assay: Kinase selectivity profiling (focused panel), radioactive filter plate assay: GSK3b; details: Phospho glycogen synthase peptide2, 1.5 μM ATP, 90 min
T3 construct: purchased Carna Biosciences 04-141
Method: as §1, §2, §3, §4, §5

CDK2 = target: T4, CDK2 (Homo sapiens, UniProt P24941); assay: Kinase selectivity profiling (focused panel), radioactive filter plate assay: CDK2; details: Histone H1-derived peptide, 0.1 μM ATP, 60 min
T4 construct: purchased Carna Biosciences 04-103
Method: as §1, §2, §3, §4, §5

Aurora B = target: T5, Aurora B (Homo sapiens, UniProt Q96GD4); assay: Kinase selectivity profiling (focused panel), radioactive filter plate assay: Aurora B; details: Histone H3 peptide, 1.3 μM ATP, 90 min
T5 construct: purchased Carna BioSciences 05-102
Method: as §1, §2
as §3, with “The reaction is started by addition of 9 μL of ATP+[γ-^33P]ATP, diluted in the same buffer as enzyme and substrate. The mixture is incubated at 30° C. The reaction is terminated by adding 25 μL of 150 mM phosphoric acid.” left out, “counter. […]” for “counter.”

ABL = target: T6, ABL (Homo sapiens, UniProt P00519); assay: Kinase selectivity profiling (focused panel), radioactive filter plate assay: ABL; details: PolyGT substrate, 0.5 μM ATP, 60 min
T6 construct: purchased Life Technologies P3049
Method: as §1, §2, §3, §4, §5

T1 sequence (P12931 whole entry): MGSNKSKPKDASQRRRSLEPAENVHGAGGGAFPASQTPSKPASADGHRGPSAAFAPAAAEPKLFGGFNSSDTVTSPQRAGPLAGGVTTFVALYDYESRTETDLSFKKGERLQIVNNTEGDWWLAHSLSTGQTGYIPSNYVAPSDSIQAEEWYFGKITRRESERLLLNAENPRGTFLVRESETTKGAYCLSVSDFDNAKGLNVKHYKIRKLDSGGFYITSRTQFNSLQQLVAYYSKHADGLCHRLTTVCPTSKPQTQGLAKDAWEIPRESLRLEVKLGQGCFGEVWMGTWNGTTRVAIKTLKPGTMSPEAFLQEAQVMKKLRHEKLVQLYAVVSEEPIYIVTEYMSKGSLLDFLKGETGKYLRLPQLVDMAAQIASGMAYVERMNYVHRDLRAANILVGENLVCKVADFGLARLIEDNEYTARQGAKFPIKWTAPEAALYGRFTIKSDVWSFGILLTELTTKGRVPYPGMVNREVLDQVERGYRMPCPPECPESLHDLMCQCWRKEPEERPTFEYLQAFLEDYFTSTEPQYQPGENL
T3 sequence (P49841 whole entry): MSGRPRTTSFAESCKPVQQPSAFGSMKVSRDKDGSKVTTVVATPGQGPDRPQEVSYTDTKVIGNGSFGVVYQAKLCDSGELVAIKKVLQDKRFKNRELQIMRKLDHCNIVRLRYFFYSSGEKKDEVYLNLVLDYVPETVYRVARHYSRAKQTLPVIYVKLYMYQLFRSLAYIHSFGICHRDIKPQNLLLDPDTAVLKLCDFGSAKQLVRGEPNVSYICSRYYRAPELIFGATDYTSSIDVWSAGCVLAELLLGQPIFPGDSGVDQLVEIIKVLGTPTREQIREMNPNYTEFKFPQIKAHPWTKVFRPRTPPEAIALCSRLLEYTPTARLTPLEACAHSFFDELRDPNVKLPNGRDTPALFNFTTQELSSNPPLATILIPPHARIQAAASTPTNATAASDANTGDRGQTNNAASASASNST
T2 sequence (P50750 whole entry): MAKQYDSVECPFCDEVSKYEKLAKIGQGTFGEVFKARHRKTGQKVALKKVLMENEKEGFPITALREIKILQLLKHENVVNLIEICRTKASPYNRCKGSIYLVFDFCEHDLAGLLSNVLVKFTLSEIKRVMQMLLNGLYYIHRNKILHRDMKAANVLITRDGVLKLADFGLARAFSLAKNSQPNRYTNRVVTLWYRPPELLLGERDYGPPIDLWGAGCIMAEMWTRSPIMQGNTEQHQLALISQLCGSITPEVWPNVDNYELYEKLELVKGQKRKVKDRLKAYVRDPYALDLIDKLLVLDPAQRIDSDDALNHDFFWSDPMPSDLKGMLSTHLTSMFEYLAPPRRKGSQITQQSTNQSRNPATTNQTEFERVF
T2 sequence (O60563 whole entry partner): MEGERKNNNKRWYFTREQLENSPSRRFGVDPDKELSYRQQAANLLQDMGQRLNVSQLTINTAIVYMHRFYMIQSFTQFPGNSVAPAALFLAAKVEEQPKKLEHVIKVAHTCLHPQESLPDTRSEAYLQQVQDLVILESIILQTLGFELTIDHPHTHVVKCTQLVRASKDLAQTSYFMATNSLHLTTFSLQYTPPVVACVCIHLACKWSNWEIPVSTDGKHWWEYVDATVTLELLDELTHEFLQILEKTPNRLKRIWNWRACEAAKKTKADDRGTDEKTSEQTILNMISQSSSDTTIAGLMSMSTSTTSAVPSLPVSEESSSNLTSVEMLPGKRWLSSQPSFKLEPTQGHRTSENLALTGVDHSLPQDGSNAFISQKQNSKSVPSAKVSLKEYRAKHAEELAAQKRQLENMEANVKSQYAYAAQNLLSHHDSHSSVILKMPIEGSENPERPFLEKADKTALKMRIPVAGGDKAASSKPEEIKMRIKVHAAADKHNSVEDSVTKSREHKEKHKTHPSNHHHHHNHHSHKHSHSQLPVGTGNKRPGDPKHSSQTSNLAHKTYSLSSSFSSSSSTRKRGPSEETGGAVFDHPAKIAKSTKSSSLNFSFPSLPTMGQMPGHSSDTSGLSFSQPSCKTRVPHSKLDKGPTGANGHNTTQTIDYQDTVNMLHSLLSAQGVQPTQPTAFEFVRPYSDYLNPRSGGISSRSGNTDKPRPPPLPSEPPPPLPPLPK
T5 sequence (Q96GD4 whole entry): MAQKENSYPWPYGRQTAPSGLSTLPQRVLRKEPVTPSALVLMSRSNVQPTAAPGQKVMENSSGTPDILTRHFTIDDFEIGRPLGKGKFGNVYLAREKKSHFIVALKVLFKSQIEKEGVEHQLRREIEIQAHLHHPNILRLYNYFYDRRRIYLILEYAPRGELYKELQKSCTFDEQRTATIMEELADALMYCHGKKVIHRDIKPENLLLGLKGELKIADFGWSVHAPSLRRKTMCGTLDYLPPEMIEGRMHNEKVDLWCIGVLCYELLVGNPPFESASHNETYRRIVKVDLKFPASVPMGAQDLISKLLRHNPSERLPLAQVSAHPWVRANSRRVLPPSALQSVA
T5 sequence (Q9NQS7 803-918 partner limits assumed): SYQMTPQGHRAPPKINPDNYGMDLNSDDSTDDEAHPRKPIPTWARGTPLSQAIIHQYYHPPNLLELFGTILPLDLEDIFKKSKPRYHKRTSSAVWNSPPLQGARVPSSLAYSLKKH
T6 sequence (P00519 whole entry): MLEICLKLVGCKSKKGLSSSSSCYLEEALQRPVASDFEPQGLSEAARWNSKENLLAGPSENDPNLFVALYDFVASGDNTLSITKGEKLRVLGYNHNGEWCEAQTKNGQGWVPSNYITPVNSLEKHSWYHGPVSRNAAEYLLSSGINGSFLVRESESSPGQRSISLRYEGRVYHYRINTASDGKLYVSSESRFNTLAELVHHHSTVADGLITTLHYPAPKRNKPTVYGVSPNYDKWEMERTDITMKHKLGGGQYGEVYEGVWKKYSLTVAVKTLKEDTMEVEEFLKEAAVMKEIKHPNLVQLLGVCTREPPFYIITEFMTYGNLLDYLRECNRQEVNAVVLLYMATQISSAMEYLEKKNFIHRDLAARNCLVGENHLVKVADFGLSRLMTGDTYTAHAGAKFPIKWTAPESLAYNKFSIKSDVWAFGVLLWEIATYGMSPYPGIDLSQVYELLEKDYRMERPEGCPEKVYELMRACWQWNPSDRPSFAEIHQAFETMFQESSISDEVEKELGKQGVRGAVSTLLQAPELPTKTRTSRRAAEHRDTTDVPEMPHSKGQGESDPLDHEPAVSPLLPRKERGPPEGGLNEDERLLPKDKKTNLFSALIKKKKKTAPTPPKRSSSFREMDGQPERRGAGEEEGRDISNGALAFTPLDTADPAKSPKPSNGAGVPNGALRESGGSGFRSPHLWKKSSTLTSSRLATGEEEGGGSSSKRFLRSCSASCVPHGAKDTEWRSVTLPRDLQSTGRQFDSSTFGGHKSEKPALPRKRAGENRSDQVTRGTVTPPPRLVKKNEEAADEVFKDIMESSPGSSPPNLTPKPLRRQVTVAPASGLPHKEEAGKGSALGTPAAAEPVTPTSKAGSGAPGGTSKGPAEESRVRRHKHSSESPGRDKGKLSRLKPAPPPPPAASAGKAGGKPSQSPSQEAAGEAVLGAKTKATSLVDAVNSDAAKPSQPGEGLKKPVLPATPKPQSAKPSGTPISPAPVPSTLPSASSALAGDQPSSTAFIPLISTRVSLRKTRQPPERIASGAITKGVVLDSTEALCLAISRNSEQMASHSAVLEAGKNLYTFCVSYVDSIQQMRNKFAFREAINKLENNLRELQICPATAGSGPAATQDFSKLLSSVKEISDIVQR

Structure (SMILES)	IC50 (c-SRC)	IC50 (CDK9)	IC50 (GSK3b)	IC50 (CDK2)	IC50 (Aurora B)	IC50 (ABL)
N#Cc1ccc(-n2cnc3cc(OCCOCCO)c(NC4CCOCC4)nc32)nc1 [Compound 1, 6-[6-[2-(2-hydroxy-ethoxy)-ethoxy]-5-(tetrahydro-pyran-4-ylamino)-imidazo[4,5-b]pyridin-3-yl]-nicotinonitrile]	> 1.33 µM	> 1.33 µM	> 6.67 µM	> 6.67 µM	–	–
C[C@]1(O)CC[C@@H](Nc2nc3c(cc2OCCOCCO)ncn3-c2ccc(C#N)cn2)CC1 [Compound 12, 6-[6-[2-(2-hydroxyethoxy)ethoxy]-5-[((cis-1,4)-4-hydroxy-4-methylcyclohexyl)amino]imidazo[4,5-b]pyridin-3-yl]pyridine-3-carbonitrile]	0.477 µM	1.15 µM	> 1.33 µM	0.944 µM	> 1.88 µM	0.138 µM

Source: patent publication US10508111B2, “6-[5-amino-6-(2-ethoxyethoxy)-imidazo[4,5-B]pyridin-3-yl]-nicotinonitrile derivatives and their use as IRAK inhibitors” (GALAPAGOS NV, priority 2015, dated 2019)
